Ends that are not written are not given here.
How the values were obtained:
B16-F-10 mouse melanoma = assay: B16-F10 mouse melanoma lung metastasis model; type: in vivo, C57/BL6 mice; conditions: for number of tumor nodules, difference versus no treatment saline (one-way ANOVA, p<0.05) / reduction of lung metastasis (tumor nodules) relative to no treatment saline: Table 1B study, i.v., days 1, 2, 4, 6, 8, 12
mouse PD-1 = biological target: T1, mouse PD-1 (Mus musculus, UniProt Q02242); assay: BIACORE binding of peptide LD01 to mouse PD-1; conditions: immobilized peptide; 25° C.
T1 sequence (Q02242 25-288): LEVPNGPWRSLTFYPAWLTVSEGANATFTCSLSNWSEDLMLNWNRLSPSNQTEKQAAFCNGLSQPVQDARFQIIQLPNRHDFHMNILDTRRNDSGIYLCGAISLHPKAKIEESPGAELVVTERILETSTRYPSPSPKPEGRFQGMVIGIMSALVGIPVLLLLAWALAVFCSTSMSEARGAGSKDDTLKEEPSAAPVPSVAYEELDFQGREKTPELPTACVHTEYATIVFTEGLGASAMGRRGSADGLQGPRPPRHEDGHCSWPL
Procedure: (§1) BIACORE® assays were carried out using a BIACORE® T-200 at 25° C. The assay and regeneration buffers contained 10 mM HEPES (pH 7.4), 150 mM NaCl, 3 mM EDTA, and 0.05% P20. The immobilization buffer was 10 mM sodium acetate, pH 5.0. The flow rate used for immobilizing the ligand was 5 μl/min. The flow rate for kinetics analysis was 30 μl/min.
(§2) Scouting. […] The un-occupied sites were blocked with 1M ethanol amine. Scouting was performed at a single analyte concentration of 290 nM to confirm yes/no binding. Flow cell 1 was kept blank and used for reference subtraction. Binding of analyte to the ligand was monitored in real time.
(§3) Full Kinetics. Based on the scouting results, full kinetics was performed at analyte concentration of 100 nM, followed by serial dilution to 50, 25, 12.5, 6.25, 3.125, 1.562 and 0 nM concentration or as indicated. KD was determined from the observed kon (on rate) and koff (off rate) or by steady state equilibrium kinetics for the interactions with fast off rate.
(§4) Chi square (χ^2) analysis was carried out between the actual Sensorgram and the sensorgram generated from the BIAnalysis software to determine the accuracy of the analysis. χ^2 value within 1-2 is considered significant (accurate) and below 1 is highly significant (highly accurate).

human PBMCs = type: cell-based; conditions: 72 hours
mouse splenocytes = assay: Anti-CD3-stimulated mouse splenocyte proliferation (CFSE); type: cell-based; conditions: 1, 5, 25 μM peptide; 1 μg/mL anti-CD3; presence and absence of exogenously added PD-L1-Fc; 3 days
Procedure: PD-L1-Fc fusion protein is hypothesized to reduce anti-CD3 induced splenocyte proliferation.
Carboxyfluorescein diacetate succinimidyl ester (CFSE)-labeled mouse splenocytes (400,000 cells, 5 μM CFSE) were stimulated using 1 μg/mL anti-CD3 antibody and varying levels of PD-L1-Fc or an irrelevant control Fc. […] The CFSE dilution profiles were analyzed by flow cytometry after 3 days of treatment.

IFNγ-secreting T cells = assay: Mouse sepsis model (CLP), splenic IFNγ-secreting T cells by ELISPOT; type: in vivo, mice; conditions: treated at 6, 24, 48, 72 and 96 hours after CLP, anti-CD3 and anti-CD28 stimulation
Procedure: Twenty-four hours later, mice were euthanized, individual spleens were removed, and the number of splenic IFNγ-secreting T cells were determined by ELISPOT assay. For the ELISPOT assay splenocytes were stimulated via anti-CD3 and anti-CD28. Shown in FIG. 14 is the number of IFNγ-secreting T cells per 2×10^5 splenocytes.

human PD-1 [1] = biological target: T2, human PD-1 (Homo sapiens, UniProt Q15116); assay: Binding of PD-L1-Fc to PD-1 in a cell-free plate assay; conditions: plates coated with peptide; 1 μg/mL PD-1
Procedure: The plates were washed and blocked with 1% BSA for 1 hour at room temperature. The plates were then incubated with 100 μL of 1 μg/mL PD-1 at room temperature for 1 hour. The plates were again washed and incubated with PD-L1 at room temperature for 1 hour. After another round of washes, the plates were incubated with anti-human IgG-HRP. After incubation for 1 hour and washes, the HRP was detected by incubating with TMB substrate, and the OD were read on a microplate reader.
Target sequence in this assay (Q15116 25-167 limits assumed): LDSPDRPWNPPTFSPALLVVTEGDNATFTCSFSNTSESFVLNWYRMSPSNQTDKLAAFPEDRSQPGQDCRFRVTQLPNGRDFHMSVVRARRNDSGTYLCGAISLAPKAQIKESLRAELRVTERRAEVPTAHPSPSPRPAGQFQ
Target sequence in this assay (Q9NZQ7 19-238 partner limits assumed): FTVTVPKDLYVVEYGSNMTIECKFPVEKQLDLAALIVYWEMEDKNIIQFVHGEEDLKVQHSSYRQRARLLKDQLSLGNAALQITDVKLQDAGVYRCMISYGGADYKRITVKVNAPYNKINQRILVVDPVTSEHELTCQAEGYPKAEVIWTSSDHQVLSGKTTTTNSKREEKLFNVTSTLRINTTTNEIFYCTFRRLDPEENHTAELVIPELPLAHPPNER

[2] = system: CSP-specific, IFNγ-secreting CD8+ T cells; assay: Immunogenicity of AdPyCSP malaria vaccine (ELISPOT); type: in vivo, Balb/c mice; conditions: for increase in number of CSP-specific, IFNγ-secreting CD8 T cells relative to AdPyCSP alone: 200 μg i.p. days 0, 1, 3, 5, 7, day 12
Procedure: Balb/c mice were immunized intramuscularly with 10^10 virus particles of a recombinant replication defective adenovirus expressing the Plasmodium yoelli circumsporozoite protein (AdPyCSP).
The negative control peptide used in this study was the ovalbumin (OVA) peptide ([…], SEQ ID NO:34). At day 12 post immunization, mice were euthanized, individual spleens removed, and the number of splenic CSP-specific, IFNγ-secreting CD8^+ T cells were determined by ELISPOT assay. For the ELISPOT assay splenocytes were stimulated with the peptide […] (SEQ ID NO:35), an H-2Kd-restricted CD8^+ T cell epitope of PyCSP.
Peptides LD01, LD10da, and LD16da were tested as described above, this time using peptide LD12 (cohort 2) as the negative control. Test sample, route of treatment and treatment days are detailed in Table 2B.
At day 12 post immunization, mice were euthanized, individual spleens removed, and the number of splenic CSP-specific, IFNγ-secreting CD8^+ T cells were determined by ELISPOT assay. For the ELISPOT assay splenocytes were stimulated with the peptide […] (SEQ ID NO:35), an H-2Kd-restricted CD8^+ T cell epitope of PyCSP.

[3] = biological target: T3, human PD-1 expressed on the surface of Jurkat cells (Homo sapiens, UniProt Q15116); assay: Binding of PD-L1-Fc fusion protein to human PD-1 on Jurkat cells (flow cytometry); type: cell-based; conditions: varying peptide concentrations, 1 hour pre-incubation; increasing dose-response trend
T3 construct: host or cells: Jurkat
Procedure: A human T cell line (Jurkat) stably expressing human PD-1 on its surface was purchased from Promega. This cell line was cultured using sterile techniques and maintained in log-phase growth. PD-1 protein expression levels were measured using an anti-human PD-1 antibody labeled with allophycocyanin (APC) for quality assessment.
For the experiment, 200 μL of 2.5*10^5 cells were plated in staining buffer into a microtiter plate. […] After another wash step, the cells were incubated with anti-human Fc labeled with AF647 for 30 minutes. After several washes, the mean fluorescence intensity due to PD-L1-Fc binding to PD-1 was measured by flow cytometry.

[4] = system: CD1 mice with intra-abdominal peritonitis induced by cecal ligation and puncture (CLP); assay: Mouse sepsis model (CLP), survival; type: in vivo; conditions: 200 μg intraperitoneally at 6, 24, and 48 hours after CLP surgery
Source text: CD1 mice were anesthetized, a midline abdominal incision made, the cecum was ligated and punctured, and then the incision closed.

human PD-1 [5] = biological target: T2, human PD-1; assay: BIACORE binding of peptide LD01 to human PD-1; conditions: immobilized peptide; single analyte concentration 290 nM; 25° C.
Procedure: as §1, §2, §3, §4
Target sequence in this assay (Q15116 25-288): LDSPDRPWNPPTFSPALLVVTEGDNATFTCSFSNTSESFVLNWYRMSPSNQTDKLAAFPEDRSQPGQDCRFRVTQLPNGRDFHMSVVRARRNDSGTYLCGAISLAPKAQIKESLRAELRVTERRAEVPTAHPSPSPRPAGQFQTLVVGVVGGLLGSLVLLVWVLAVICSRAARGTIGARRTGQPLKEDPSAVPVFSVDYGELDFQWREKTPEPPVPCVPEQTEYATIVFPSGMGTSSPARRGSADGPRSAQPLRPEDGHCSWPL

T3 sequence (Q15116 25-288): as above

CC[C@H](C)[C@H](NC(=O)[C@H](CCC(N)=O)NC(=O)CNC(=O)[C@@H](NC(=O)[C@H](CO)NC(=O)[C@H](N)[C@H](C)O)[C@@H](C)O)C(=O)N[C@@H](CO)C(=O)N[C@H](C(=O)N[C@@H](CC(C)C)C(=O)N[C@@H](CCCNC(=N)N)C(=O)N[C@H](C(=O)N[C@@H](CC(N)=O)C(=O)N[C@H](C(=O)N[C@H](C(=O)N[C@@H](C)C(=O)N1CCC[C@H]1C(=O)N[C@@H](CC(C)C)C(=O)N[C@@H](CO)C(=O)N[C@@H](CCC(N)=O)C(N)=O)[C@@H](C)O)[C@@H](C)CC)C(C)C)[C@@H](C)O [LD01 TQ19 da/LD16 da]
number of tumor nodules, difference versus no treatment saline (one-way ANOVA, p<0.05) (B16-F-10 mouse melanoma): Significant differences | reduction of lung metastasis (tumor nodules) relative to no treatment saline (B16-F-10 mouse melanoma): ~30%

CC[C@H](C)[C@H](NC(=O)[C@H](CCC(N)=O)NC(=O)CNC(=O)[C@@H](NC(=O)[C@H](CO)NC(=O)[C@@H](NC(=O)[C@H](CCCNC(=N)N)NC(=O)[C@H](CCCNC(=N)N)NC(=O)[C@@H](N)CS)[C@@H](C)O)[C@@H](C)O)C(=O)N[C@@H](CO)C(=O)N[C@H](C(=O)N[C@@H](CC(C)C)C(=O)N[C@@H](CCCNC(=N)N)C(=O)N[C@H](C(=O)N[C@@H](CC(N)=O)C(=O)N[C@H](C(=O)N[C@H](C(=O)N[C@@H](C)C(=O)N1CCC[C@H]1C(=O)N[C@@H](CC(C)C)C(=O)N[C@@H](CO)C(=O)N[C@@H](CCC(N)=O)C(N)=O)[C@@H](C)O)[C@@H](C)CC)C(C)C)[C@@H](C)O [LD01]
binding to mouse PD-1 (BIACORE, single concentration and kinetics) (mouse PD-1): binds | increase in IFN-γ secretion relative to SEB alone (human PBMCs): 4 fold | effect on proliferation of anti-CD3 stimulated mouse splenocytes (mouse splenocytes): enhances proliferation | number of splenic IFNγ-secreting T cells relative to the control peptide (IFNγ-secreting T cells): increase | effect on binding of human PD-L1-Fc fusion protein to human PD-1 in a cell-free assay (human PD-1 [1]): enhances binding | immunogenicity compared with anti-PD-1 or -PD-L1 antibody (Cohort 4 and 5) ([2]; Table 2A study, 200 μg i.p.): slightly above | increase in number of CSP-specific, IFNγ-secreting CD8 T cells relative to AdPyCSP alone ([2]; Table 2A study): ~2 fold | increase in number of CSP-specific, IFNγ-secreting CD8 T cells relative to AdPyCSP alone ([2]; Table 2B study): ~1.5 fold | effect on binding of human PD-L1-Fc fusion protein to human PD-1-expressing Jurkat cells [3]: enhances binding | survival rate [4]: 70% | binding to human PD-1 (BIACORE, yes/no) (human PD-1 [5]): binds | reduction of lung metastasis (tumor nodules) relative to no treatment (B16-F-10 mouse melanoma; Table 1A study, Cohorts 3 and 4 (20 μg and 200 μg i.v., days 1, 2, 4, 6, 8, 12), day 14): ~50% | number of tumor nodules, difference versus no treatment saline (one-way ANOVA, p<0.05) (B16-F-10 mouse melanoma): Significant differences | reduction of lung metastasis (tumor nodules) relative to no treatment saline (B16-F-10 mouse melanoma): ~30%

CC[C@H](C)[C@H](NC(=O)[C@H](CCC(N)=O)NC(=O)CNC(=O)[C@@H](NC(=O)[C@H](N)CO)[C@@H](C)O)C(=O)N[C@@H](CO)C(=O)N[C@H](C(=O)N[C@@H](CC(C)C)C(=O)N[C@@H](CCCNC(=N)N)C(=O)N[C@H](C(=O)N[C@@H](CC(N)=O)C(=O)N[C@H](C(=O)N[C@H](C(=O)N[C@@H](C)C(=O)N1CCC[C@H]1C(=O)N[C@@H](CC(C)C)C(=O)N[C@@H](CO)C(=O)N[C@@H](CCC(N)=O)C(N)=O)[C@@H](C)O)[C@@H](C)CC)C(C)C)[C@@H](C)O [LD10da]
immunogenicity compared with α-PD-1 mAb (Cohort 6) ([2]; Table 2B study, 200 μg i.p.): slightly above

RRTSPGQISTLRVNITAPLSQ [LD02]
survival rate [4]: 30%
